Reference: patent publication US9840501B2, “Morpholin-pyridine derivatives” (Hoffmann-La Roche Inc., priority 2014, dated 2017)

Columns and labels:
rat TAAR1 = rat TAAR1 (Rattus norvegicus (Rat), UniProt Q923Y9); assay: Radioligand binding assay on rat TAAR1; conditions: for Ki: rat TAAR1, membranes of stably transfected HEK-293 cells, second value of the pair, read-out: Ki (μM) mouse/rat: rat
Procedure, shortened: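 Membranes from HEK293 cells stably expressing rat TAAR1, in 20 mM HEPES-NaOH pH 7.4; displacement of 3[H]-(S)-4-[(ethyl-phenyl-amino)-methyl]-4,5-dihydro-oxazol-2-ylamine, nonspecific binding with 10 μM unlabeled ligand. Compounds 10 pM to 10 μM in duplicate, 1 h at 4 °C, filtration and scintillation counting.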

mouse TAAR1 = mouse TAAR1 (Mus musculus (Mouse), UniProt Q923Y8); assay: Radioligand binding assay on mouse TAAR1; conditions: for Ki: mouse TAAR1, membranes of stably transfected HEK-293 cells, first value of the pair, read-out: Ki (μM) mouse/rat: mouse
Procedure, shortened: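 Membranes from HEK293 cells stably expressing mouse TAAR1, in 20 mM HEPES-NaOH pH 7.4 with 0.1 mM EDTA, incubated 1 h at 4 °C with ^3[H]-(S)-4-[(ethyl-phenyl-amino)-methyl]-4,5-dihydro-oxazol-2-ylamine and compounds (10 pM to 10 μM, duplicates). Nonspecific binding with 10 μM unlabeled ligand; bound radioactivity counted after filtration.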

Sequence of mouse TAAR1 (Q923Y8 whole entry): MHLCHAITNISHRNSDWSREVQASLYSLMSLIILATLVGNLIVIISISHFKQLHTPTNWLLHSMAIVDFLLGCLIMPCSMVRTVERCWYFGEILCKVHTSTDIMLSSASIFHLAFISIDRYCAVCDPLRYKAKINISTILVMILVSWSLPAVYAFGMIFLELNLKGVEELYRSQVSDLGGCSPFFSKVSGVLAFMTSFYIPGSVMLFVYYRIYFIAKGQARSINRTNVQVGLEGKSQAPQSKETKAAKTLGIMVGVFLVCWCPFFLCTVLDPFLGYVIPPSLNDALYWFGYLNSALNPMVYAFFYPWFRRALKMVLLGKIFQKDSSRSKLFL
Sequence of rat TAAR1 (Q923Y9 whole entry): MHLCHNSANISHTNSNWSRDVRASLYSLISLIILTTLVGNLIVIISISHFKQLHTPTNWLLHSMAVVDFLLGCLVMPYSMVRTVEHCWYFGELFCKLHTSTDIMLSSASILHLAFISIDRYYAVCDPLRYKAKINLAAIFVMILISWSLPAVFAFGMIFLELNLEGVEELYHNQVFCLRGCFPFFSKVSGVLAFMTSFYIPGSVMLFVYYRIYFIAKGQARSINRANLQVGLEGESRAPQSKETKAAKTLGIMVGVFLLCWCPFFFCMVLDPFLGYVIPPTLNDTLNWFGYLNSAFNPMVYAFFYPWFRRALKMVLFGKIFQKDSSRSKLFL

Row | Compound | Ki (rat TAAR1) [µM] | Ki (mouse TAAR1) [µM] | Kd (rat TAAR1; rat TAAR1 membranes, saturation curve, usual value per membrane batch, read-out: dissociation constant (Kd) of the radioligand) [nM] | Kd (mouse TAAR1; mouse TAAR1 membranes, saturation curve, usual value per membrane batch, read-out: dissociation constant (Kd) of the radioligand) [nM]
1 | CC(C)c1n[nH]c(C(=O)Nc2ccc([C@H]3CNCCO3)nc2)c1Cl [Example 115, 4-Chloro-3-isopropyl-N-[6-[(2R)-morpholin-2-yl]-3-pyridyl]-1H-pyrazole-5-carboxamide] | 0.009 | 0.0087 | – | –
2 | CC(C)c1n[nH]c(C(=O)Nc2ccc([C@H]3CNCCO3)nc2)c1F [Example 116, 4-Fluoro-3-isopropyl-N-[6-[(2R)-morpholin-2-yl]-3-pyridyl]-1H-pyrazole-5-carboxamide] | 0.12 | 0.015 | – | –
3 | CC(C)c1n[nH]c(C(=O)Nc2ccc([C@@H]3CNCCO3)nc2)c1Cl [Example 120, 4-Chloro-3-isopropyl-N-[6-[(2S)-morpholin-2-yl]-3-pyridyl]-1H-pyrazole-5-carboxamide] | 0.0203 | 0.0311 | – | –
4 | CC(C)c1n[nH]c(C(=O)Nc2ccc([C@@H]3CNCCO3)nc2)c1F [Example 121, 4-Fluoro-3-isopropyl-N-[6-[(2S)-morpholin-2-yl]-3-pyridyl]-1H-pyrazole-5-carboxamide] | 0.0954 | 0.0239 | – | –
5 | CCN(C[C@H]1COC(N)=N1)c1ccccc1 [^3[H]—(S)-4-[(ethyl-phenyl-amino)-methyl]-4,5-dihydro-oxazol-2-ylamine, reference compound] | – | – | ~2.3 | ~0.7
